Entries after “also recorded” stand apart in the source; their conditions may differ.
Tests used:
Assay type in all cases: cell-based
hCB1 mutant L404A^8.50 = target: T1, hCB1 mutant L404A^8.50 (Homo sapiens, UniProt P21554, L404A); assay: pIRES G protein dissociation BRET assay, L404A mutant; conditions: for G protein dissociation, AUC of 10 μM compound (maximal response): 10 μM ligand alone
T1 construct: expressed in transfected cells; host or cells: HEK293
Method: (§1) Mutagenesis studies using the pIRES G protein dissociation assay were performed using human embryonic kidney 293 (HEK293) wild-type cells transiently transfected with pplss-3HA-hCB1 [31] or modified receptor. All cells were cultured in Dulbecco’s Modified Eagle’s Medium (DMEM) supplemented with 10% fetal bovine serum (FBS), grown in […] vented-cap flasks, and maintained in a 37° C incubator at 5% CO2.
(§2) Mutants of pplss-3HA-hCB1 (WT, pEF-V4-HisA (pEF4a) construct) were generated using a modified QuikChange® (Stratagene, San Diego, CA, USA) site-directed mutagenesis approach using KAPA HiFi Hotstart Polymerase (KAPA Biosystems, Roche, Basel, Switzerland). Briefly, single-stranded primers used to modify one or two base pairs within the target amino acid using PCR were purchased from Integrated DNA Technologies (IDT, Coralville, IA, USA). All pplss-hCB1 mutants were generated using the pplss-3HA-hCB1 pEF4a as parental DNA. PCR products were generated using recommended cycling conditions and treated with Dpn1 (New England Biolabs, Ipswich, MA, USA) overnight at 37° C to digest methylated parental DNA. PCR products were electrophoresed and run on an agarose gel (1% (w.v^−1) agarose, HydraGene, Piscataway, NJ, USA) containing 0.25 μg/mL ethidium bromide (Sigma-Aldrich, St. Louis, MO, USA). Gels were run in 40 mM TRIS-acetate buffer containing […] (pH 8.3) at 100 V for 30 min, maximum current and included a 1kb+ DNA ladder (Invitrogen, Thermo Fisher Scientific, Carlsbad, CA, USA) for reference. Gels were imaged using an UVTech Alliance Q9 Mini transilluminator (UVTech Alliance, Cambridge, UK). Digested products were then used to transform NEB 5α competent E. coli cells in accordance with manufacturer’s instructions. Briefly, transformed PCR products were grown overnight on 8.5 mL Luria Broth agar plates (containing 100 μg/mL ampicillin) at 37° C. Single bacterial colonies were picked and inoculated in Luria Broth (containing 100 μg/mL ampicillin) and grown overnight in a shaking incubator at 37° C. Plasmids were then harvested and purified using a Qiagen miniprep kit (Qiagen, Hilden, Germany) and validated using sequencing (Genetics Analysis Service, University of Otago, Dunedin, New Zealand).
(§3) Dissociation of the G protein heterotrimer, specifically Gαi1, Gβ1, and Gγ2, was investigated using a bioluminescence resonance energy transfer (BRET) assay with the pIRES biosensor first described by and adapted by.
(§4) Briefly, 3 × 10^6 WT HEK293 cells were seeded into 10 cm culture dishes (Corning, Corning, NY, USA; one dish for the control receptor and one for each modified receptor) and incubated at 37 °C for 24 h to gain 50–60% confluency. Culture medium was then replaced and transfection mixtures containing 3 μg pIRES vector and 1 μg receptor (either pplss-hCB1 or modified receptor) were prepared (4 μg total DNA). Plasmids were initially diluted in sterile Milli-Q water before being diluted in OptiMEM reduced serum medium (Thermo Fisher Scientific, Waltham, MA, USA) and combined with […] polyethylenimine (PEI)-max (1:9 DNA:PEI-max ratio) and incubated at room temperature for 20 min. Transfection mixtures were then added to cells via dropwise addition, and cells were incubated at 37 °C for 24 h. Transfected cells were lifted and plated at 50,000 cells/well into poly-d-lysine (PDL; Sigma-Aldrich) coated white 96-well CulturPlates (PerkinElmer, Waltham, MA, USA) and incubated for a further 24 h at 37 °C.
(§5) To assay, the culture medium was aspirated and cells were washed with phosphate buffered saline (PBS) and replaced with BRET assay medium (phenol red free DMEM containing 25 mM HEPES and supplemented with 1 mg/mL bovine serum albumin; BSA, MP Biomedicals, Auckland, New Zealand) for 30 min prior to drug addition (serum starve). Drugs were prepared at 10 × concentration in BRET assay medium, combined in a polypropylene V-bottom plate, and incubated at 37° C prior to drug stimulation.

hCB1 mutant R148A^12.51 = target: T2, hCB1 mutant R148A^12.51 (Homo sapiens, UniProt P21554, R148A); assay: pIRES G protein dissociation BRET assay, R148A mutant; conditions: for Increase in the potency of CP55940-induced G protein dissociation: 10 μM allosteric ligand; for G protein dissociation, AUC of 10 μM compound (maximal response): 10 μM ligand alone
T2 construct: expressed in transfected cells; host or cells: HEK293
T2 sequence (P21554 whole entry R148A): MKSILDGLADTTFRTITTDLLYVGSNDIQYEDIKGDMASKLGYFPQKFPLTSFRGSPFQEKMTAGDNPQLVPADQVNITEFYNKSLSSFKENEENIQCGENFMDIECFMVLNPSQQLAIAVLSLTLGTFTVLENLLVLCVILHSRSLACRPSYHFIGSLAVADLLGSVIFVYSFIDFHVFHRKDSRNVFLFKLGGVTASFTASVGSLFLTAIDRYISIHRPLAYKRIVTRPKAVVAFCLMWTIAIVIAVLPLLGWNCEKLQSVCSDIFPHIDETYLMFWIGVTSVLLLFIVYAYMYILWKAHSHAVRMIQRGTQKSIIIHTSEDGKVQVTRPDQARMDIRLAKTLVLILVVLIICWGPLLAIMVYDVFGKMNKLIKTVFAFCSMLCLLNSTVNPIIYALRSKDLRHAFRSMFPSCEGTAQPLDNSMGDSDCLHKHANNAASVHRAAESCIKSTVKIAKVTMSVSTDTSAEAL
Method: as §1, §2, §3, §4, §5

hCB1 mutant I169A^2.56 = target: T3, hCB1 mutant I169A^2.56 (Homo sapiens, UniProt P21554, I169A); assay: pIRES G protein dissociation BRET assay, I169A mutant; conditions: for G protein dissociation, AUC of 10 μM compound (maximal response): 10 μM ligand alone; for Allosteric agonism: G protein dissociation in the absence of an orthosteric ligand: 10 μM; for Allosteric agonism: G protein dissociation in the absence of an orthosteric ligand / Allosteric modulation of CP55940 (PAM activity): result in words; for Allosteric modulation of CP55940 (PAM activity): 10 μM allosteric ligand
T3 construct: expressed in transfected cells; host or cells: HEK293
T3 sequence (P21554 whole entry I169A): as the sequence (P21554 whole entry R148A) above, with A148R, I169A counted along it
Method: as §1, §2, §3, §4, §5

hCB1 mutant H154A^2.41 = target: T4, hCB1 mutant H154A^2.41 (Homo sapiens, UniProt P21554, H154A); assay: pIRES G protein dissociation BRET assay, H154A mutant; conditions: for G protein dissociation, AUC of 10 μM compound (maximal response): 10 μM ligand alone
T4 construct: expressed in transfected cells; host or cells: HEK293
T4 sequence (P21554 whole entry H154A): as the sequence (P21554 whole entry R148A) above, with A148R, H154A counted along it
Method: as §1, §2, §3, §4, §5

WT hCB1 = target: T5, WT hCB1 (Homo sapiens, UniProt P21554); assay: pIRES G protein dissociation BRET assay, WT hCB1; conditions: for Allosteric modulation of maximal CP55940-induced G protein dissociation / Effect on the potency of CP55940-induced G protein dissociation: 10 μM allosteric ligand; for Allosteric modulation of maximal CP55940-induced G protein dissociation / Effect on the potency of CP55940-induced G protein dissociation / Allosteric agonism: G protein dissociation in the absence of an orthosteric ligand: result in words; for G protein dissociation, AUC of 10 μM compound (maximal response): 10 μM ligand alone
T5 construct: expressed in transfected cells; host or cells: HEK293
T5 sequence (P21554 whole entry): as the sequence (P21554 whole entry R148A) above, with A148R counted along it
Method: as §1, §3, §4
To assay, the culture medium was aspirated and cells were washed with phosphate buffered saline (PBS) and replaced with BRET assay medium (phenol red free DMEM containing 25 mM HEPES and supplemented with 1 mg/mL bovine serum albumin; BSA, MP Biomedicals, Auckland, New Zealand) for 30 min prior to drug addition (serum starve). Drugs were prepared at 10 × concentration in BRET assay medium, combined in a polypropylene V-bottom plate, and incubated at 37° C prior to drug stimulation. Coelenterazine-h (Nanolight Technology, Prolume Ltd, Pinetop, AZ, USA) was prepared at 10 × concentration in BRET assay medium (final concentration 5 μM) and dispensed to cells immediately prior to drug stimulation. Plates were transferred to the LUMIstar Omega plate reader (BMG Labtech GmbH, Ortenburg, BW, Germany) and luminescence (475 and 535 nm) was detected simultaneously in the dark with BRET1 filters for approximately 5 min to establish a baseline BRET ratio. Drugs were added to cells, plates were returned to the LUMIstar and luminescence was detected for a further 25 min. BRET ratios (475/535) were calculated in Omega MARS software v 3.32, exported, and data were analysed using GraphPad Prism v8. Baseline correction was performed using an in-built function in GraphPad Prism, subtracting vehicle BRET ratios from matched conditions. Area under the curve (AUC) analysis was performed in GraphPad Prism using an in-built function to obtain concentration response data.
All data analysis was performed using GraphPad Prism v8. Sigmoidal concentration series were generated by performing AUC analysis and fit using three-parameter nonlinear regression curves. Statistical analyses were performed using data interpolated from nonlinear regression curves using parameters derived from five independent biological replicates. Both one- and two-way repeated measures ANOVA and paired t-tests were used where appropriate (specified in-text), and posthoc tests, specified in text, were performed when significance was reached (p < 0.05). Time course data presented in this manuscript are pooled data (n = 5) and expressed as mean ± SEM. Concentration response data are representative, data expressed as mean ± SD from technical triplicates, to avoid misestimation of parameters from combined/pooled data.

[1] = 10 μM CP55940 in the presence of 10 μM ZCZ011
[2] = in the presence of 10 μM GAT228
[3] = in the presence of 10 μM GAT229
[4] = top of the curve (maximal response)

T1 sequence (P21554 whole entry L404A): as the sequence (P21554 whole entry R148A) above, with A148R, L404A counted along it

Row | SMILES | G protein dissociation, AUC of 10 μM compound (maximal response) (hCB1 mutant L404A^8.50) | G protein dissociation, AUC of 10 μM compound (maximal response) (hCB1 mutant I169A^2.56) | Increase in the potency of CP55940-induced G protein dissociation (hCB1 mutant R148A^12.51) | G protein dissociation, AUC of 10 μM compound (maximal response) (hCB1 mutant R148A^12.51) | Allosteric agonism: G protein dissociation in the absence of an orthosteric ligand (hCB1 mutant I169A^2.56) | G protein dissociation, AUC of 10 μM compound (maximal response) (hCB1 mutant H154A^2.41) | Allosteric modulation of maximal CP55940-induced G protein dissociation (WT hCB1) | Effect on the potency of CP55940-induced G protein dissociation (WT hCB1) | G protein dissociation, AUC of 10 μM compound (maximal response) (WT hCB1) | Allosteric agonism: G protein dissociation in the absence of an orthosteric ligand (WT hCB1) | Allosteric modulation of CP55940 (PAM activity) (hCB1 mutant I169A^2.56) | other results
1 | CCCCCCC(C)(C)c1ccc([C@@H]2C[C@H](O)CC[C@H]2CCCO)c(O)c1 [CP55940] | −110.3 ± 3.7 | −113.1 ± 11.7 |  |  |  |  |  |  |  |  |  | G protein dissociation, AUC, 10 μM CP55940 + 10 μM ZCZ011 (hCB1 mutant L404A^8.50; [1]): −133.5 ± 5.6; EMAX, CP55940 + 10 μM GAT228 (hCB1 mutant L404A^8.50; [2]): −115.1 ± 8.3 ∆BRET.sec; EMAX, CP55940 + 10 μM GAT229 (hCB1 mutant L404A^8.50; [3]): −122.3 ± 7.0 ∆BRET.sec; EMAX, CP55940 Alone (hCB1 mutant L404A^8.50; [4]): −103.1 ± 3.6 ∆BRET.sec; G protein dissociation, AUC, 10 μM CP55940 + 10 μM ZCZ011 (hCB1 mutant R148A^12.51; [1]): −237.3 ± 11.6; EMAX, CP55940 + 10 μM GAT228 (hCB1 mutant R148A^12.51; [2]): −218.2 ± 8.5 ∆BRET.sec; EMAX, CP55940 + 10 μM GAT229 (hCB1 mutant R148A^12.51; [3]): −243.9 ± 5.4 ∆BRET.sec; EMAX, CP55940 Alone (hCB1 mutant R148A^12.51; [4]): −175.6 ± 11.4 ∆BRET.sec; EMAX, CP55940 + 10 μM GAT228 (hCB1 mutant I169A^2.56; [2]): −117.0 ± 7.4 ∆BRET.sec; EMAX, CP55940 + 10 μM GAT229 (hCB1 mutant I169A^2.56; [3]): −109.7 ± 8.3 ∆BRET.sec; EMAX, CP55940 Alone (hCB1 mutant I169A^2.56; [4]): −110.7 ± 10.3 ∆BRET.sec; G protein dissociation, AUC, 10 μM CP55940 + 10 μM ZCZ011 (hCB1 mutant H154A^2.41; [1]): −189.5 ± 8.5; EMAX, CP55940 + 10 μM GAT228 (hCB1 mutant H154A^2.41; [2]): −200.5 ± 11.6 ∆BRET.sec; EMAX, CP55940 + 10 μM GAT229 (hCB1 mutant H154A^2.41; [3]): −210.6 ± 10.1 ∆BRET.sec; EMAX, CP55940 Alone (hCB1 mutant H154A^2.41; [4]): −151.8 ± 5.9 ∆BRET.sec; G protein dissociation, AUC, 10 μM CP55940 + 10 μM ZCZ011 (WT hCB1; [1]): −215.9 ± 2.9; EMAX, CP55940 + 10 μM GAT228 (WT hCB1; [2]): −194.2 ± 7.3 ∆BRET.sec; EMAX, CP55940 + 10 μM GAT229 (WT hCB1; [3]): −205.1 ± 7.8 ∆BRET.sec; EMAX, CP55940 Alone (WT hCB1; [4]): −184.1 ± 3.8 ∆BRET.sec
2 | O=[N+]([O-])C[C@H](c1ccccc1)c1c(-c2ccccc2)[nH]c2ccccc12 [GAT228] | −63.2 ± 5.6 | 30.0 ± 5.9 | less than 0.5 log units | −102.7 ± 11.8 | abolished; also recorded: inhibited constitutive G protein dissociation | −101.6 ± 6.9 | did not alter CP55940-induced G protein dissociation | small but significant decrease in the potency of CP55940 | −105.7 ± 7.2 | increased wild-type G protein dissociation |  | 
3 | O=[N+]([O-])C[C@@H](c1ccccc1)c1c(-c2ccccc2)[nH]c2ccccc12 [GAT229] | −88.9 ± 6.2 | 54.8 ± 7.5 | less than 0.5 log units | −148.5 ± 7.7 | abolished; also recorded: inhibited constitutive G protein dissociation | −154.6 ± 7.8 | increased maximal CP55940-induced G protein dissociation | Neither GAT229 nor GAT228 increased the potency | −148.6 ± 7.2 | increased wild-type G protein dissociation | neither allosteric ligand acted as a PAM | 
4 | Cc1ccc2c(C(C[N+](=O)[O-])c3cccs3)c(-c3ccccc3)[nH]c2c1 (stereo not drawn) [ZCZ011, 6-Methyl-3-(2-nitro-1-(thiophen-2-yl)ethyl)-2-phenyl-1 H-indole] | −85.2 ± 7.3 | −20.0 ± 9.0 |  | −150.1 ± 10.2 | abolished; also recorded: substantial reduction in G protein dissociation | −129.4 ± 5.1 | increased maximal CP55940-induced G protein dissociation |  | −167.3 ± 3.2 | increased wild-type G protein dissociation | neither allosteric ligand acted as a PAM | 
